The text below walks through data of patent US20090306132A1, “USE OF DERIVATIVES OF NAPHTHALENESULPHONIC OR QUINOLINESULPHONIC ACID IN THE TREATMENT OF VASOPROLIFERATIVE OCULAR DISEASES” (ITALFARMACO, S.A., priority 2006, published 2009).

The subject of the experiment is hypoxia-induced hypervascularization of the retina. Kind of experiment: Inhibition of hypoxia-induced vascularization in a mouse model of retinopathy of prematurity (retinopathy score). It counts as in vivo, C57BL/6J mice. The protocol:
A total of thirty C57BL/6J mice were used in a model of retinopathy of prematurity. Seven days after birth, the mice (young) were transferred together with their mothers to a high-oxygen atmosphere (75%) obtained using a mixture of oxygen and air. After 5 days, the animals were transferred to a normal atmosphere. The relative hypoxia produced leads to the release of growth factors which, in turn, cause hypervascularization of the retina. 14-18 hours thereafter, an intravitreous injection of 2 μl of a sterile saline solution of sodium 5-amino-2-naphthalene sulfonate (25 mg/ml) into an eye was performed, and another injection of an equivalent volume of saline solution was performed in the contralateral eye.
Five days after the return to normal atmosphere, the mice were put down by means of an intracardiac injection of dextrane marked with fluorescein (50 mg/ml), the nuclei were removed from both eyes and were fixed for 2 to 6 hours in formaldehyde (4%) at room temperature.
Subsequently, the retina was cut and mounted for observation by fluorescent microscopy, with the vasculature of the retina being assessed. Given that the retina occupies a circular area, in order to perform the assessment, 12 equal radial segments are considered. For the assessment of the central vascularization, the retina is divided into three concentric circles defining three zones: the interior zone around the optic disc, the middle and the exterior zone.
The retinopathy is quantified using a system of multiple assessment in which various morphological parameters associated with retinopathy are assessed: • Presence of a “crest” in each radial segment. One point for each radial segment with the presence of crests. Scoring from 0 to 12. • Presumed extraretinal vascularization, indicated by the presence of groupings of “crest-like” structures. One point for each radial segment with groupings. Scoring from 0 to 12. • Size of the central avascular zone. Scoring from 0 to 3, with 0 meaning an occupation of less than 50% of the interior zone; 1 an occupation of less than 25% of the sum of the interior and middle zone; 2 an occupation of between 25-50% of said sum and 3 an occupation of greater than 50% of same. • Tortuosity of the vessels, measured as a percentage of tortuous vessels with respect to the total. The scoring ranges from 0 to 3, with 0 meaning no tortuosity, 1 if less than ⅓ of the total are tortuous, 2 if between ⅓ and ⅔ are tortuous, and 3 if more than ⅔ are tortuous.
For each eye, a global assessment was obtained consisting of the sum of the points obtained for each parameter.
The statistical analysis of the data was performed subsequently using a Wilcoxon's test.

Setting [1] is: intravitreous injection of 2 μl of 25 mg/ml in saline, five days after return to normal atmosphere, N 30.

Regarding `Nc1cccc2cc(S(=O)(=O)[O-])ccc12.[Na+]` [ACTIVE, sodium 5-amino-2-naphthalene sulfonate], the “Effect seen in histological sections of treated eye versus contralateral placebo eye (in words)” value (histological sections, FIG. 2) was “antiangiogenic effect”. Moreover, the “Global retinopathy assessment (sum of the points obtained for each parameter), Median” value (intravitreous injection of 2 μl of 25 mg/ml in saline into one eye, saline in contralateral eye, assessed five days after return to normal atmosphere, N 30, p=0.017 vs placebo (Wilcoxon)) stood at 10.5. In addition, under setting [1], the “Global retinopathy assessment (sum of the points obtained for each parameter), Maximum” value is recorded as 16 and the “Global retinopathy assessment (sum of the points obtained for each parameter), Minimum” value is on record as 3. Besides, under “score compared to placebo, FIG. 1”, the “Effect on neovascularization induced by hypoxia of the retina (in words)” value is “inhibitory effect”.
